According to patent US9458203B2, “Integrin-blocking polypeptides and uses thereof” (priority 2011, dated 2016):
Where two headings read alike, the source gives them in different places. Ends that are not written are not given here.

How the values were obtained:
[1] = system: human prostate cancer DU-145; type: in vivo, nude mice; settings: mouse, in vivo
Experimental: (§2) Taking a certain amount of vigorously growing tumor tissue, grinding the tumor tissue under sterile conditions and preparing cell suspension at the concentration of 1×10^7 cells/ml; then hypodermicaly inoculating 0.1 ml of the cell suspension into the right axillary region of nude mice. Keeping measuring the diameter of the transplanted tumor with a vernier caliper, and randomly dividing the mice into groups when the volume of the tumor reached 100-200 mm^3. […] Measuring the tumor diameter once every other day and recording the body weight of mice simultaneously. Intravenously injecting polypeptides to mice from test groups while administering equal quantity of physiological saline to mice from the negative control group. The total medication period was 14 days. Avastin was adopted to set up a positive control group; it was administered through the tail vein once every three days while all other drugs were administered through the tail vein once a day. Leaving mice for a one-week rest after 14 days' medication, then (21 days after medication) killing the mice, surgically dissecting the tumors and measuring the weight of tumors. The tumor volume (TV) was calculated in accordance with the following formula: TV=½×a×b^2

[2] = system: human endometrial cancer HHUA; settings: mouse, in vivo
Experimental: (§3) Taking a certain amount of vigorously growing tumor tissue, grinding the tumor tissue under sterile conditions and preparing cell suspension at the concentration of 1×10^7 cells/ml; then hypodermicaly inoculating 0.1 ml of the cell suspension into the right axillary region of nude mice. Keeping measuring the diameter of the transplanted tumor with a vernier caliper, and randomly dividing the mice into groups when the volume of the tumor reached 100-200 mm^3. Observing the dynamic effect of integrin-blocking polypeptides on inhibiting the growth of the tumor by means of documenting the change of tumor diameters. Measuring the tumor diameter once every other day and recording the body weight of mice simultaneously. Intravenously injecting polypeptides to mice from test groups while administering equal quantity of physiological saline to mice from the negative control group. The total medication period was 14 days. Avastin was adopted to set up a positive control group; it was administered through the tail vein once every three days while all other drugs were administered through the tail vein once a day. Leaving mice for a one-week rest after 14 days' medication, then (21 days after medication) killing the mice, surgically dissecting the tumors and measuring the weight of tumors. The tumor volume (TV) was calculated in accordance with the following formula: TV=½×a×b^2
(§4) Taxol used in the positive control group was administered once every 3 days through tail vein injection, while drugs of all other groups were administered on daily basis through tail vein injection.

[3] = system: human gastric cancer MGC-803; settings: mouse, in vivo
Text: (§5) Keeping measuring the diameter of the transplanted tumor with a vernier caliper, and randomly dividing the mice into groups when the volume of the tumor reached 100-200 mm^3. Observing the dynamic effect of integrin-blocking polypeptides on inhibiting the growth of the tumor by means of documenting the change of tumor diameters. Measuring the tumor diameter once every other day and recording the body weight of mice simultaneously. Intravenously injecting polypeptides to mice from test groups while administering equal quantity of physiological saline to mice from the negative control group. The total medication period was 14 days. Avastin was adopted to set up a positive control group; it was administered through the tail vein once every three days while all other drugs were administered through the tail vein once a day. Leaving mice for a one-week rest after 14 days' medication, then (21 days after medication) killing the mice, surgically dissecting the tumors and measuring the weight of tumors. The tumor volume (TV) was calculated in accordance with the following formula: TV=½×a×b^2

[4] = system: human cervical cancer HeLa; type: in vivo, nude mice; settings: mouse, in vivo
Experimental: as §2

[5] = system: melanoma B16F10; experiment: transplanted melanoma B16F10 in C57BL/6 black mice; settings: mouse, in vivo
Experimental: Hypodermically injecting polypeptides and other drugs into the left axillary region of mice from the experimental groups respectively while administering only equal quantity of physiological saline to the mice from the negative control group. The total medication period was 14 days, during which cyclophosphamide was administered once every other day, taxol once every three days, low-dose polypeptide twice a day and all other drugs once a day.

[6] = system: human gallbladder cancer GBC-SD; experiment: heterotransplanted human gallbladder cancer GBC-SD in nude mice; settings: for final weight: daily, tail vein injection
Experimental: as §3
(§6) Avastin used in the positive control group was administered once every 2 days through tail vein injection, while drugs of all other groups were administered on daily basis through tail vein injection.

[7] = system: human breast cancer MDA-MB-231; experiment: heterotransplanted human breast cancer MDA-MB-231 in nude mice; settings: for final weight: tail vein once a day, 14 days
Experimental: as §3
(§7) wherein a, b refer to the length and width of the tumor respectively.
(§8) The relative tumor volume (RTV) can be calculated in accordance with the results of measurement, using the formula: RTV=Vt/V0, wherein V0 refers to the initial tumor volume measured on the date starting medication (namely d0) while Vt the tumor volume obtained through every measurement. The anti-tumor activity was evaluated by relative proliferation rate T/C (%), which was calculated in accordance with the following formula:
(§9) wherein TRTV refers to the RTV of experimental groups; CRTV refers to the RTV of the negative control group.

[8] = system: human renal cancer A498; type: in vivo, nude mice; settings: mouse, in vivo
Experimental: as §2

[9] = system: human laryngeal cancer Hep-2; experiment: heterotransplanted human laryngeal cancer Hep-2 in nude mice; type: in vivo; settings: for final weight: body weight of nude mice, daily, tail vein injection
Text: (§1) The total medication period was 14 days.

[10] = system: human bladder cancer HT1376; experiment: heterotransplanted human bladder cancer HT1376 in nude mice; type: in vivo; settings: for final weight: daily, tail vein injection
Text: as §1

[11] = system: human gallbladder cancer GBC-SD; settings: mouse, in vivo
Experimental: as §3, §6

[12] = system: human breast cancer MDA-MB-231; settings: mouse, in vivo
Experimental: as §3, §7, §8, §9

[13] = system: human rectal cancer Colo 320; settings: mouse, in vivo
Experimental: as §3, §4

[14] = system: human colon cancer HT-29; type: in vivo, nude mice; settings: mouse, in vivo
Experimental: as §2

[15] = system: human liver cancer SMMC-7721; settings: mouse, in vivo
Experimental: as §3, §4

[16] = system: human lung cancer H460; settings: mouse, in vivo
[17] = system: human pancreatic cancer SW-1990; experiment: heterotransplanted human pancreatic cancer SW-1990 in nude mice; type: in vivo; settings: for final weight: daily, tail vein injection
Text: as §1

[18] = system: human brain tumor SF763; settings: mouse, in vivo
Experimental: as §3, §4

[19] = system: human thyroid cancer SW-579; type: in vivo, nude mice; settings: mouse, in vivo
Experimental: as §2

[20] = system: human ovarian cancer SK-OV-3; type: in vivo, nude mice; settings: mouse, in vivo
Experimental: as §2

[21] = system: human gastric cancer MGC-803; experiment: heterotransplanted human gastric cancer MGC-803 in nude mice; settings: for final weight: tail vein daily
Text: as §5

[22] = system: sarcoma HT-1080; type: in vivo, nude mice; settings: mouse, in vivo
Text: as §1

[23] = system: human testicular cancer 5637; type: in vivo, nude mice; settings: mouse, in vivo
Text: as §1

[24] = system: human esophageal cancer Ec109; type: in vivo, nude mice; settings: mouse, in vivo
Text: as §1

[25] = type: in vivo, nude mice; settings: mouse, in vivo
Text: as §1

[26] = in contrast with the negative control group

FQPVLHLVALNSPLSGGMRGIRGADFQCFQQARAVGLAGTFRA [polypeptide I]
body weight of animals, in words [1]: no significant change in body weight
toxic and side effects, in words [1]: no obvious toxic and side effects
body weight of animals, in words [2]: no significant change in body weight
toxic and side effects, in words [2]: no obvious toxic and side effects
toxic and side effects, in words [3]: no obvious toxic and side effects
body weight of animals, in words [4]: no significant change in body weight
toxic and side effects, in words [4]: no obvious toxic and side effects
body weight of animals, in words [5]: no significant change
toxic and side effects, in words [5]: no significant toxic and side effects
final weight ([6]; 0.75 mg/kg/time): 22.95 ± 0.46 g
final weight ([6]; 1.5 mg/kg/time): 23.04 ± 0.55 g
final weight ([6]; 3 mg/kg/time): 22.89 ± 0.51 g
body weight of animals, in words [6, 26]: no significant change in body weight
final weight ([7]; 0.75 mg/kg/time): 22.28 ± 1.75 g
final weight ([7]; 1.5 mg/kg/time): 20.21 ± 1.97 g
final weight ([7]; 3 mg/kg/time): 19.34 ± 1.13 g
body weight of animals, in words [7, 26]: no significant change in body weight
body weight of animals, in words [8]: no significant change in body weight
toxic and side effects, in words [8]: no obvious toxic and side effects
final weight ([9]; 0.75 mg/kg/time): 22.88 ± 0.63 g
final weight ([9]; 1.5 mg/kg/time): 23.21 ± 0.62 g
final weight ([9]; 3 mg/kg/time): 22.99 ± 0.62 g
body weight of animals, in words [9, 26]: no significant change in body weight
toxic and side effects, in words ([9]; mouse, in vivo): no obvious toxic and side effects
final weight ([10]; 0.75 mg/kg/time): 23.17 ± 0.58 g
final weight ([10]; 1.5 mg/kg/time): 22.88 ± 0.66 g
final weight ([10]; 3 mg/kg/time): 23.14 ± 0.54 g
body weight of animals, in words [10, 26]: no significant change in body weight
toxic and side effects, in words ([10]; mouse, in vivo): no obvious toxic and side effects
toxic and side effects, in words [11]: no obvious toxic and side effects
toxic and side effects, in words [12]: no obvious toxic and side effects
body weight of animals, in words [13]: no significant change in body weight
toxic and side effects, in words [13]: no obvious toxic and side effects
final weight ([13]; 0.75 mg/kg): 23.11 ± 0.61 g
final weight ([13]; 1.5 mg/kg): 22.87 ± 0.57 g
final weight ([13]; 3 mg/kg): 20.99 ± 0.66 g
body weight of animals, in words [14]: no significant change in body weight
toxic and side effects, in words [14]: no obvious toxic and side effects
body weight of animals, in words [15]: no significant change in body weight
toxic and side effects, in words [15]: no obvious toxic and side effects
body weight of animals, in words [16]: no significant change in body weight
toxic and side effects, in words [16]: no obvious toxic and side effects
final weight ([17]; 0.75 mg/kg/time): 23.06 ± 0.64 g
final weight ([17]; 1.5 mg/kg/time): 23.03 ± 0.65 g
final weight ([17]; 3 mg/kg/time): 22.86 ± 0.65 g
body weight of animals, in words [17, 26]: no significant change in body weight
toxic and side effects, in words ([17]; mouse, in vivo): no obvious toxic and side effects
body weight of animals, in words [18]: no significant change in body weight
toxic and side effects, in words [18]: no obvious toxic and side effects
final weight ([18]; 0.75 mg/kg): 22.90 ± 0.69 g
final weight ([18]; 1.5 mg/kg): 22.99 ± 0.62 g
final weight ([18]; 3 mg/kg): 20.94 ± 0.47 g
body weight of animals, in words [19]: no significant change in body weight
toxic and side effects, in words [19]: no obvious toxic and side effects
body weight of animals, in words [20]: no significant change in body weight
toxic and side effects, in words [20]: no obvious toxic and side effects
final weight ([20]; 0.75 mg/kg): 23.09 ± 0.59 g
final weight ([20]; 1.5 mg/kg): 22.96 ± 0.59 g
final weight ([20]; 3 mg/kg): 23.16 ± 0.51 g
final weight ([21]; 0.75 mg/kg/time): 22.98 ± 0.60 g
final weight ([21]; 1.5 mg/kg/time): 22.66 ± 0.61 g
final weight ([21]; 3 mg/kg/time): 23.23 ± 0.67 g
body weight of animals, in words [21, 26]: no significant change in body weight
body weight of animals, in words [22]: no significant change in body weight
toxic and side effects, in words [22]: no obvious toxic and side effects
final weight ([22]; 0.75 mg/kg): 22.99 ± 0.51 g
final weight ([22]; 1.5 mg/kg): 23.10 ± 0.64 g
final weight ([22]; 3 mg/kg): 23.13 ± 0.38 g
toxic and side effects, in words [23]: no obvious toxic and side effects
body weight of animals, in words [24]: no significant change in body weight
toxic and side effects, in words [24]: no obvious toxic and side effects
body weight of animals, in words [25]: no significant change in body weight
